Consider 1 molecule from patent publication US20250161338A1, “Compounds for Anti-aging Intervention” (AGENCY FOR SCIENCE, TECHNOLOGY AND RESEARCH, priority 2022, published 2025).

“Also recorded” adds a separate entry of the source.

Assay [1] concerns prototrophic yeast strain (CEN.PK113-7D). Description: Propidium iodide fluorescence-based CLS method in yeast (incl. high-throughput screening).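 On PI intensity: untreated reference is eight DMSO and water control wells per plate.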 It counts as cell-based, Saccharomyces cerevisiae. The method in brief:
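CEN.PK113-7D aged in SD medium at 30 °C with compounds (rapamycin 0–10 nM; sugars 0–8 mM; screen at single concentrations). At each age point cells were stained with 5 μg/mL PI for 15 min; fluorescence was normalized to OD600, background-subtracted, and survival scaled against boiled-cell control.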

In assay [2] the test system is HEK293 cells. Description: CLS in human cells, PrestoBlue outgrowth assay (HEK293). Format: cell-based. The method, then:
Human embryonic kidney 293 (HEK293) cells (ATCC, Manassas, Virginia, United States of America), lung epithelial (A549) cells (ATCC, Manassas, Virginia, United States of America) and fibroblast (IMR90) cells (ATCC, Manassas, Virginia, United States of America) were cultured in the standard D10 medium, consisting of high-glucose DMEM (HyClone, Cytiva, Marlborough, Massachusetts, USA) supplemented with 10% Fetal Bovine Serum (FBS) (Gibco™, ThermoFisher Scientific, Waltham, Massachusetts, USA) and 1% Penicillin Streptomycin Solution (Gibco™, ThermoFisher Scientific, Waltham, Massachusetts, USA). All cells were cultured in a humidified incubator with 5% CO2 at 37° C.
The seeding, washing and trypsinization process was performed similarly to that for the crystal violet assay. 80,000 cells were seeded in a 96-well culture plate with or without compound treatment. At different age time points after seeding, floating dead cells were aspirated with exhausted D10 medium, cells were gently washed with 1×PBS to remove D10 medium residue and treated with 0.2 mL of 0.25% trypsin. […] After one day of growth in a 37° C. incubator with 5% CO2, the cell number was assessed with PrestoBlue™ Cell Viability Reagent (Invitrogen™, Waltham, Massachusetts, USA) according to the manufacturer's protocol. […] After incubation in a 37° C. incubator with 5% CO2 for 3 to 4 hours, reading was taken with a BioTek Synergy MX microplate reader (BioTek, Winooski, Vermont, United States) at excitation and emission wavelengths of 560 nm and 590 nm, respectively.
PrestoBlue (PB) is a resazurin-based reagent used to detect cell viability and traces of cytotoxicity in the medium. It produces results that can be detected both colorimetrically and fluorometrically. […] The resazurin component is reduced to form resorufin by live cells, resulting in a visible change from blue colour to red colour in the reagent, at the same time developing fluorescence, which can be easily detected by a microplate reader. […] The PB assay was easy to perform as the reagent is a commercially available as ready-to-use solution.

Assay [3] concerns wild-type Saccharomyces cerevisiae CEN.PK113-7D yeast strain. Briefly: Chronological lifespan analysis in yeast (PI, outgrowth, spotting). It counts as cell-based. The method, then:
Yeast strain was recovered from frozen glycerol stock at 30° C. on YPD agar medium. Yeast was left to propagate in SD medium overnight at 30° C. with shaking at 220 revolutions per minute (rpm). Cells propagated overnight were diluted to a starting optical density at 600 nm (OD600) of approximately 0.2 in fresh SD medium to begin the chronological lifespan (CLS) experiments.
CLS experiments were performed in 96-well plates with 200 μL yeast culture. Cellular inoculums were transferred into 96-well plates containing serially double-diluted concentrations (0 to 10 nM) of rapamycin. […] Cells were incubated at 30° C., and the growth was measured at different time points. The growth time point 72 hours was considered as Day 1 for the CLS assay. Cell survival was quantified at various age time points by three different approaches: (i) PI fluorescence-based method, (ii) outgrowth in YPD liquid medium, and (iii) spotting assay (FIG. 1).
Yeast cells (40 μL) from different age time points were transferred into a second 96-well plate (different to the 96-well plate in which the CLS analysis as outlined above was performed). Cells were washed and incubated in 100 μL 1×phosphate buffered saline (PBS) with propidium iodide (PI) (5 μg/mL) for 15 minutes in the dark. Positive and negative control samples were included for quantitative analysis. Positive control (cells boiled at 100° C. for 15 minutes) was PI-stained and processed in the same 96-well plate. Samples without PI-stained cells served as the negative control. After incubation, cells were washed and resuspended in 100 μL PBS. The fluorescence reading of the samples (excitation and emission wavelengths at 535 nm and 617 nm, respectively) and OD600 were measured with a microplate reader (BioTek, Winooski, Vermont, United States). The fluorescence intensity of each sample was normalized with OD600. The background fluorescence signal of the unstained negative sample was subtracted from the normalized fluorescence intensity of each sample. The obtained fluorescence intensity of the positive control (boiled dead cells) was considered 0% cell survival. Cell death was validated by allowing the boiled dead cells to grow in medium. Cell survival at different age time points of samples were calculated by normalizing the fluorescence intensity with positive control sample (boiled cells).
Yeast stationary culture (3 μL) of different age time points were transferred to a second 96-well plate, containing 200 μL YPD medium, and incubated for 24 hours at 30° C. Outgrowth (OD600) of aged cells was measured by the microplate reader. Quantification of cell survival for each age point was determined as relative to Day 1 (considered 100% cell survival). This quantification was performed by using the formula,
Yeast stationary culture (3 μL) of different age time points were spotted onto a YPD agar plate and incubated for 48 hours at 30° C. The outgrowth of aged cells on the YPD agar plate was photographed using the Bio-Rad GelDoc Imaging System (Bio-Rad, Hercules, California, United States).

Take `OC[C@H]1O[C@H](CO)[C@@H](O)[C@@H]1O` [2,5-AM, 2,5-anhydro-D-mannitol]: the “survival of aged cells” value in assay [1] (4 mM and 8 mM, Day 4, without compound approx. 50%) is “approximately 80%”; in assay [1] (Day 7, without compound less than 20%), “approximately 75%”; in assay [3] (8 mM, Day 21, without compound less than 10%), “approximately 65%”. Moreover, the “Yeast CLS increase” value in assay [1] (concentration tested 300 μg/mL, Yes/No call of the screen) is reported as “Yes”. Also, the PI intensity in assay [1] (concentration tested 300 μg/mL, solvent water, age point Day 7) is 36,240.0. Also, the “more viable cells compared to the untreated group” value in assay [2] (2.5 mM, HEK293) came to 76.31%. Moreover, the “more surviving cells relative to the untreated group” value in assay [2] (5 mM, HEK293) amounted to 123.7%. Moreover, the “CLS of HEK293 cells by outgrowth method” value in assay [2] (different concentrations, Day 4 normalized to Day 1 (FIG. 19)) was “Trends of lifespan extension”. Further, the “effect on yeast CLS” value is on record as “extended the CLS in a concentration-dependent manner; also recorded: extended the lifespan even at the late stage of chronological aging” in assay [3] (0 to 8 mM in SD medium, up to day 21) and “increased CLS” in assay [3] (very low concentrations (2 mM)).
